Counter-ions that a name gives are not always drawn.
What was measured:
U2OS ER-Minus cells = test: IL-6 production in ER-Minus (parental) U2OS osteosarcoma cells; assay type: cell-based, human; details: 24 h
human full-length ER-α = target: T1, human full-length ER-α (Homo sapiens, UniProt P03372); test: IL-6 production in U2OS osteosarcoma cells stably transfected with ER-α; assay type: cell-based
T1 construct: expression vectors for human full-length ER-α or ER-β; expressed in transfected cells
T1 sequence (P03372 1-595): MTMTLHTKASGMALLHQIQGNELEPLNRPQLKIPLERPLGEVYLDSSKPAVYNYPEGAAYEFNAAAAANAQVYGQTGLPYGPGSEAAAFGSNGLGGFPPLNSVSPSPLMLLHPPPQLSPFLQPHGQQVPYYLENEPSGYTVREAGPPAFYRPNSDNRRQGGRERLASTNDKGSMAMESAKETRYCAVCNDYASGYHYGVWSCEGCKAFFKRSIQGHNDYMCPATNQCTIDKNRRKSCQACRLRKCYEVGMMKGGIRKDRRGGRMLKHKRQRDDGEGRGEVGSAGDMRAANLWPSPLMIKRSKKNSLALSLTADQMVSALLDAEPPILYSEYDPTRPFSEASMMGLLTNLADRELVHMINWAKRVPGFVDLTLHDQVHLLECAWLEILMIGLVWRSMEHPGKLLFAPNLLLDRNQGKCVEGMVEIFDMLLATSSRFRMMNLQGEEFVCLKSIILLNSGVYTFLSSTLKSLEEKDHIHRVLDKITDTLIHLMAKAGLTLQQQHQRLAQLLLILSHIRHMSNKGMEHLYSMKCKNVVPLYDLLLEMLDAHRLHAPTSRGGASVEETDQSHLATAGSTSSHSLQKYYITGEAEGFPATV

human full-length ER-β = target: T2, human full-length ER-β (Homo sapiens, UniProt Q92731); test: IL-6 production in U2OS osteosarcoma cells stably transfected with ER-β; assay type: cell-based
T2 construct: expression vectors for human full-length ER-α or ER-β; expressed in transfected cells
T2 sequence (Q92731 whole entry): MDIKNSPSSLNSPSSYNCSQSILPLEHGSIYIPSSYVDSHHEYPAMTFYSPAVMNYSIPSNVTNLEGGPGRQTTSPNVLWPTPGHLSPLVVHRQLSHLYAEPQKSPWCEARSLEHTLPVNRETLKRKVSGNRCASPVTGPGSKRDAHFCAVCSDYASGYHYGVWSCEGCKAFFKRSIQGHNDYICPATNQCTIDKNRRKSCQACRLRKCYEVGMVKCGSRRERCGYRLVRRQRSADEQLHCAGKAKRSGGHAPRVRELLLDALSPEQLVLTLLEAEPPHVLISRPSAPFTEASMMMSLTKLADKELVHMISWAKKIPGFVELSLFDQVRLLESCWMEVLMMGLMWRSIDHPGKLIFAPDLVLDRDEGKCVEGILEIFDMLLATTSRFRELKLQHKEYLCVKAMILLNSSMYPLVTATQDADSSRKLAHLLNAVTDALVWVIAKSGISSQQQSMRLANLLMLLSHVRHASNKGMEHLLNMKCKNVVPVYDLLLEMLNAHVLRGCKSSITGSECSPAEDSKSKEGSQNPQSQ

[1] = IL-6 after 10 ng/ml IL-1β and 10 ng/ml TNF-α, 50% inhibition relative to DMSO control

Compound | IC50 (U2OS ER-Minus cells; [1]) [nM] | IC50 (human full-length ER-α) [nM] | IC50 (human full-length ER-β) [nM] | IC50 (U2OS ER-Minus cells; Homo sapiens, U2OS) [nM] | melting point [°C]
4-Hydroxy-Tamoxifen | > 1000 | – | – | – | –
C[C@]12CC[C@@H]3c4ccc(O)cc4CC[C@H]3[C@@H]1CC[C@@H]2O [17-β-Estradiol] | > 1000 | – | – | – | –
Oc1ccc2c(c1)CCN(c1ccc(F)cc1)C2c1ccc(OCCN2CCCCC2)cc1 (stereo not shown) [Compound A, reference compound] | – | 1 | > 10000 | > 10000 | –
Oc1ccc2c(c1)CCN(c1ccccc1)C2Cc1ccc(Br)cc1 (stereo not shown) [Example 2, 1-(4-Bromobenzyl)-2-phenyl-1,2,3,4-tetrahydroisoquinolin-6-ol] | – | > 1000 | 107 | > 1000 | –
Oc1ccc2c(c1)CCN(c1ccc(F)cc1)C2Cc1ccc(OCCN2CCCCC2)cc1 (stereo not shown) [Example 5] | – | 2010 | 285 | > 10000 | –
Oc1ccc2c(c1)CCCN(c1ccc(F)cc1)C2Cc1ccc(OCCN2CCCCC2)cc1 (stereo not shown) [Example 8] | – | 10000 | 5000 | > 10000 | –
CCN(CCOc1ccc(CC2c3ccc(O)cc3CCN2c2ccc(F)cc2)cc1)Cc1ccccc1 (stereo not shown) [Example 21, 1-{4-[(2-(N-Benzyl-N-ethyl)amino)ethoxy]benzyl}-2-(4-fluorophenyl)-1,2,3,4-tetrahydroisoquinolin-6-ol] | – | – | – | – | 47 to 49
O=C(c1ccc(OCCN2CCCCC2)cc1)c1c(-c2ccc(O)cc2)sc2cc(O)ccc12 [Raloxifene Hydrochloride] | – | – | – | > 1000 | –

Source: patent US6593322B1, “Compounds and methods for modulation of estrogen receptors” (Signal Pharmaceuticals, Inc., priority 1999, dated 2003)
